Molecular target: Apoptosis regulator Bcl-2 (Homo sapiens, UniProt P10415)
Experiment: Inhibition of BCL-2 (unknown origin) using FITC-Ahx-GQVGRQLAIIGDDINR-CONH2 as substrate incubated for 4 hrs by fluorescence polarization competition assay

Sequence of Apoptosis regulator Bcl-2 (P10415 whole entry): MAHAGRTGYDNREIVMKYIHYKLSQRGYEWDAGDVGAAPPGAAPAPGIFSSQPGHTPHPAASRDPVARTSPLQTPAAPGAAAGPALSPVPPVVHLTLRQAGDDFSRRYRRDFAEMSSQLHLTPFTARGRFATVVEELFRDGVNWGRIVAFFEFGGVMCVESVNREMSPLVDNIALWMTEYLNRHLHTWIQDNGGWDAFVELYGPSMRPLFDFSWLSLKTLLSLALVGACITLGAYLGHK

Structure (SMILES)	IC50
COc1cc(C(=O)NCCNc2ccc(S(=O)(=O)NC(=O)c3ccc(N4CCN(CC5=C(c6ccc(Cl)cc6)CC(C)(C)CC5)CC4)cc3Oc3cnc4[nH]ccc4c3)cc2[N+](=O)[O-])ccc1NC(=O)[C@@H]1N[C@@H](CC(C)(C)C)[C@](C#N)(c2ccc(Cl)cc2F)[C@H]1c1cccc(Cl)c1F	< 20 nM
CC1(C)CCC(CN2CCN(c3ccc(C(=O)NS(=O)(=O)c4ccc(NCCNC(=O)COc5cccc6c5C(=O)N(C5CCC(=O)NC5=O)C6=O)c([N+](=O)[O-])c4)c(Oc4cnc5[nH]ccc5c4)c3)CC2)=C(c2ccc(Cl)cc2)C1 (stereo not given)	< 20 nM
CC1(C)CCC(CN2CCN(c3ccc(C(=O)NS(=O)(=O)c4ccc(NCCOCCOCCNC(=O)CCNC(=O)COc5cccc6c5C(=O)N(C5CCC(=O)NC5=O)C6=O)c([N+](=O)[O-])c4)c(Oc4cnc5[nH]ccc5c4)c3)CC2)=C(c2ccc(Cl)cc2)C1 (stereo not given)	< 20 nM
CC1(C)CCC(CN2CCN(c3ccc(C(=O)NS(=O)(=O)c4ccc(NCCOCCOCCNC(=O)COc5cccc6c5C(=O)N(C5CCC(=O)NC5=O)C6=O)c([N+](=O)[O-])c4)c(Oc4cnc5[nH]ccc5c4)c3)CC2)=C(c2ccc(Cl)cc2)C1 (stereo not given)	< 20 nM
COc1cc(C(=O)NCCOCCOCCNc2ccc(S(=O)(=O)NC(=O)c3ccc(N4CCN(CC5=C(c6ccc(Cl)cc6)CC(C)(C)CC5)CC4)cc3Oc3cnc4[nH]ccc4c3)cc2[N+](=O)[O-])ccc1NC(=O)[C@@H]1N[C@@H](CC(C)(C)C)[C@](C#N)(c2ccc(Cl)cc2F)[C@H]1c1cccc(Cl)c1F	< 20 nM
